Source: US20180057565A1, “STABILIZED POLYPEPTIDE INSULIN RECEPTOR MODULATORS” (President and Fellows of Harvard College, priority 2012, published 2018)
Bridge positions count the residues as written; N and C are the ends. Square brackets hold non-standard residues; d marks the D form. Peptide text beside a SMILES is read from it. R8 = C=CCCCCCC[C@@](C)(N)C(=O)O; S5 = C=CCCC[C@](C)(N)C(=O)O

How the values were obtained:
[1] = biological target: T1, IRβ Tyr1150/1151 (Homo sapiens, UniProt P06213); assay: Immunoblotting of IR auto-phosphorylation in CHO-IR cells; type: cell-based; details: 10 μM peptides in the presence of 50 nM insulin
T1 construct: expressed in transfected cells; host or cells: CHO-IR (CHO cells stably expressing IR, from the Morris White lab)
Procedure: To perform this type of direct assay, a CHO-IR cell line that stably expresses IR (provided by Morris White lab) was treated with SIRB peptides to detect auto-phosphorylation of IRβ Tyr1150/1151 (Cell signaling) by western blot.
CHO-IR cells were seeded in 24-well plates and grown in Ham's F-12, 10% FBS medium to >80% confluent (in ˜48 hours). The cells are starved in Ham's F-12 medium without FBS for two hours prior to experiment.
For agonistic studies, cells were incubated in fresh Ham's F-12 without FBS (negative control and baseline for normalization) or the same medium with 50 nM insulin (positive control and 100% activity for normalization). Experimental wells were incubated in the same medium containing various concentrations of peptide (typically 1 uM, 10 uM, and 100 uM). All cells were incubated at 37° C. for 15 min or 30 min.
For antagonistic studies, the experiment could be done with or without pre-treatment with peptides. In the case without, cells were incubated in fresh Ham's F-12 without FBS (negative control and baseline for normalization) or the same medium with 50 nM insulin (positive control and 100% activity for normalization).
Experimental wells were incubated in the same medium containing various concentrations of peptide (typically 1 uM, 10 uM, and 100 uM) AND 50 nM insulin. All cells were incubated at 37 C. for 15 min. […]

[2] = system: mIR-Fn1-Ex10; assay: Affinity pull-down of IR construct by biotinylated peptide on streptavidin beads; details: 1% BSA in binding buffer, competition by insulin
Excerpt: (§1) FIGS. 8A-8C depict the affinity pull-down of IR by SIRB-B5. 1% BSA added to binding buffer. FIG. 8A depicts the pull-down assay: Biotinylated SIRB-B5 could be immobilized on streptavidincoated beads and pull down IR from expression medium. Precipitated protein could be visualized by Western blot of His5 tag. FIG. 8B depicts L1-CR-L2 pulled down by SIRB-B5. FIG. 8C depicts mIR-Fn1-Ex10 pulled down by SIRB-B5 and competition by insulin.

[3] = biological target: T2, L1-CR-L2 (Homo sapiens, UniProt P06213); assay: as above; details: 1% BSA in binding buffer, Western blot of His5 tag
T2 construct: made in house; host or cells: HEK293 (stably transfected; protein used from expression medium)
Excerpt: as §1

[4] = system: phosphor-Akt S473; assay: Dose-response ELISA of phospho-Akt S473 in CHO-IR cell lysates; type: cell-based; details: 50 nM insulin
Procedure: FIG. 6 depicts the dose-response of antagonist SIRB-B5. CHO-IR cells were treated with 50 nM insulin and increasing concentrations of SIRB-B5. ELISA assays of phosphor-IR Y1150/1151 and phosphor-Akt S473 were performed with cell lysates.
For further verification of biological activity, the SIRB peptide library was screened again using IR auto-phosphorylation as an indicator. […] A possible explanation for the differential plateau values is that phosphorylation of Akt1 is controlled by many other pathways as well and thus difficult to abolish completely.

[5] = biological target: T3, IGF-1R (Homo sapiens, UniProt P08069); assay: IGF-1R phosphorylation Western blot after immunoprecipitation, HepG2 cells with IGF1; type: cell-based; details: in the presence of IGF1
T3 construct: host or cells: HepG2
Procedure: FIG. 11 depicts SIRB-B5 antagonism on IGF-1R. HepG2 cells were treated with SIRB-B5 in the presence of IGF1. IGF-1R was immunoprecipitated to be distinguished from IR on a Phospho-IR/IGF-1R Western blot.

[6] = system: phosphorylation of Akt1 at Ser473; assay: Phospho-Akt1 (Ser473) sandwich ELISA in HepG2 cells, antagonism and agonism screening; type: cell-based, human
Procedure: We note that although S371 has a high affinity to IR, it can barely induce downstream effects such as lipogenesis in rat adipocytes, which may reconcile with the result of no increase in downstream Akt phosphorylation. The effect of the peptides on insulin signaling was determined using a sandwich ELISA assay kit (Cell Signaling) designed to measure phosphorylation of Akt Ser473, a downstream target in the insulin signaling pathway. For each compound, cells were treated both in the presence and absence of insulin to reveal either antagonism or agonism, respectively, of insulin signaling.
Preparation: insulin stock solution at 50 μM (0.3 mg/ml or 30 mg/100 ml). To make stock: dissolved 10 mg in 1 ml 0.01 N HCl, heat at 37° C. to dissolve, then added to 32 ml, PBS, sterile filtered and stored at −20 C. Working stock would stay in good quality for 1 month at 4° C. […]
For the phospho-Akt1 ELISA assay, clarified lysate was first quantified using the standard BCA method, and all samples were adjusted to have the same total protein concentration. […]
The following day, wells were drained and washed four times with 1× Wash Buffer. […] Chemiluminescence was read under RLU mode in the […] SpectraMax Plate Reader at […] within 1-10 minutes of addition of substrate.

[7] = system: rat adipocytes; details: cited from earlier work
[8] = biological target: IR (Homo sapiens, UniProt P06213); details: read-out: affinity to the IR (kD); cited from earlier work

T3 sequence (P08069 31-736 limits assumed): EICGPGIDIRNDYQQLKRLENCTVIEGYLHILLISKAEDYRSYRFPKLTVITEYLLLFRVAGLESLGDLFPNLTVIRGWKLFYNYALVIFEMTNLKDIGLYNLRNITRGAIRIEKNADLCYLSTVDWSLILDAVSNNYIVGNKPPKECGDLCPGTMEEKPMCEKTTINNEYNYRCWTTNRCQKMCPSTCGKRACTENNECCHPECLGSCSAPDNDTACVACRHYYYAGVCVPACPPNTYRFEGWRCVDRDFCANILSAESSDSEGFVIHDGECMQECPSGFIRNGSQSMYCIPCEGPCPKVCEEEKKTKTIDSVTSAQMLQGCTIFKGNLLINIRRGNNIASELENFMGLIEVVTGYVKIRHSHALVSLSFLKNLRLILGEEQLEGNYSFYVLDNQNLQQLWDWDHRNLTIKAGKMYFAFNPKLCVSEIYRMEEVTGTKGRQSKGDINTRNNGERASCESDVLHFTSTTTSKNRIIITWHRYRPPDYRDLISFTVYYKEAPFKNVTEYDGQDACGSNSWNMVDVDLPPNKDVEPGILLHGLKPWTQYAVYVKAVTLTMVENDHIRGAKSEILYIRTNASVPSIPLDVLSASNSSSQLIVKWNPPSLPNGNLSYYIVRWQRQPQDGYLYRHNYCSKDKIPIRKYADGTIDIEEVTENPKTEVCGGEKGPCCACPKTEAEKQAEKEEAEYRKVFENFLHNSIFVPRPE
T3 sequence (P08069 741-1367 partner limits assumed): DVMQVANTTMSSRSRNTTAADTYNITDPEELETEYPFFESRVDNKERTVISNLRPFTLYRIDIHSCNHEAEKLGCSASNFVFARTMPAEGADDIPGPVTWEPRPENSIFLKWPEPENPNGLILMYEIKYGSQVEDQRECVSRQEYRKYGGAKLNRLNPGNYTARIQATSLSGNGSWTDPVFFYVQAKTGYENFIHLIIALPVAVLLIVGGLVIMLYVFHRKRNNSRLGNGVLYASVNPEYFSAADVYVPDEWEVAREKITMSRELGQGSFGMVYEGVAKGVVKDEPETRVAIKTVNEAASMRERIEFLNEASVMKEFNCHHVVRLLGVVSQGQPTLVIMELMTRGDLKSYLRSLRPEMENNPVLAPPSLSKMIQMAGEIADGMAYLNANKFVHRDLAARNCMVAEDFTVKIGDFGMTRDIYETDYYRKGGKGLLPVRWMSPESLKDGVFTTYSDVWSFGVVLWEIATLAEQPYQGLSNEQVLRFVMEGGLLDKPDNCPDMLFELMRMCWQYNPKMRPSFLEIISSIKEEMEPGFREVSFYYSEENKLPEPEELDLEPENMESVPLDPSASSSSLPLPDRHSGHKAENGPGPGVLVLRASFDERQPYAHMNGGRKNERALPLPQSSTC

**Q.** With CC(C)C[C@H](NC(=O)[C@H](CCC(N)=O)NC(=O)[C@H](CCCNC(=N)N)NC(=O)[C@]1(C)CCCC=CCCCCCC[C@@](C)(NC(=O)[C@H](CC(=O)O)NC(=O)[C@H](CC(C)C)NC(=O)[C@H](CO)NC(=O)CN)C(=O)N[C@@H](CO)C(=O)N[C@@H](Cc2ccccc2)C(=O)N[C@@H](Cc2ccc(O)cc2)C(=O)N[C@@H](CC(=O)O)C(=O)N[C@@H](Cc2c[nH]c3ccccc23)C(=O)N[C@@H](Cc2ccccc2)C(=O)N1)C(=O)NCC(N)=O [SIRB-B5] (H-GSLD[R8]SFYDWF[S5]RQLG-NH2; staple 5-12; C-terminus assumed) as the compound, how does the “effect on insulin-induced auto-phosphorylation of IR (Phospho-IR western blot)” value [1] read?
**A.** significant reduction

**Q.** What about the “pull-down of mIR-Fn1-Ex10” value [2] of the same compound?
**A.** pulled down

**Q.** What about the “pull-down of L1-CR-L2” value [3] of the same compound?
**A.** pulled down

**Q.** What about the IC50 ([4]; CHO-IR cells, read-out: IC50, inhibition of insulin-induced phosphorylation of Akt) of the same compound?
**A.** 1800 nM

**Q.** And the “Akt phosphorylation, % of control” value ([4]; maximal dose of 100 μM peptide)?
**A.** 16%

**Q.** What about the “antagonism on IGF-1R” value [5] of the same compound?
**A.** antagonism

**Q.** Which results are given for “S371: previously reported insulin-mimetic site 1 peptide of 16 residues from phage display; lead for stapling (GSLDESFYDWFERQLG)”?
**A.** reduction of the insulin-induced Akt-S473 phosphorylation signal ([6]; 10 μM peptide in the presence of 50 nM insulin): 20%; agonistic effect on Akt phosphorylation, peptide alone ([6]; absence of insulin): no trace of any increase in phosphorylation; induction of lipogenesis [7]: barely induce; Kd [8]: 40 nM
